The test system of one data set is TFEB. Kind of data set: High content screen measuring TFEB nuclear accumulation (TFEB nuclear/cytosol ratio) in BEAS-2B cells stably expressing TFEB-EGFP. The format is cell-based, human. The following applies: 18 hours incubation. Here is the method:
FIG. 3. High content screen assay (384 well) measuring TFEB nuclear accumulation. Approximately 2500 primary and immortalized human bronchial epithelial cells (BEAS-2B) stably expressing TFEB-EGFP in 25 μL of HITEs media with 10% FBS were dispensed into 384 well plate (Black with glass bottom) and incubated for 8 hours. Compound serial dilution (DMEM low glucose media with 2% FBS, 25 μL volume) were prepared using a robotic liquid hander. Compound solutions were then added to the cell plate and incubated for 18 hours. Cells were then fixed with 4% PFA followed by DAPI staining. TFEB localization was imaged on the GFP channel along with the DAPI signal using a Cytation 5 high content imager. Images were processed through Biotek Gen5 software; specifically, the DAPI signal was used as the primary mask to quantify the nuclear TFEB-GFP signal. The cytosolic TFEB-GFP signal was quantified through expanding the primary mask. The TFEB nuclear/cytosol ratios were calculated from nuclear TFEB-GFP signal/cytosol TFEB-GFP signal, which determined the compound efficacy. […] Compound activities (μM) were determined by the minimal compound concentration needed to increase TFEB nuclear/cytosol ratio by 25%. Activity: “−” equals >25 μM; “+” equals between 25 μM and >10 μM; “++” equals between ≤10 μM and >1 μM; and “+++” equals […]. N=4.
(§1) Approximately 2300 primary and immortalized human bronchial epithelial cells (BEAS-2B) stably expressing TFEB-EGFP in 25 μL of HITEs media with 10% FBS were dispensed into 384 well plate (Black with glass bottom) and incubated for 8 hours. Compound serial dilution (DMEM low glucose media with 2% FBS, 25 μL volume) were prepared using a robotic liquid hander. Compound solution were then added to the cell plate and incubated for 18 hours. Cells were then fixed with 4% PFA followed by DAPI staining. TFEB localization was imaged on the GFP channel along with the DAPI signal using a Cytation 5 high content imager. Images were processed through Biotek Gen5 software. Specifically, the DAPI signal was used as the primary mask to quantify the nuclear TFEB-GFP signal. Cytosolic TFEB-GFP signal was quantified through expanding the primary mask. The TFEB nuclear/cytosol ratios were calculated from nuclear TFEB-GFP signal/cytosol TFEB-GFP signal, which determined the compound efficacies.
Compounds efficacies (μM) were determined by the minimal compound concentration needed to increase TFEB nuclear/cytosol ratio by 25%. Activity: “+” equals >25 μM; “++” equals between ≤25 μM and >1 μM; and “+++” equals ≤1 μM.
A high-content imaging screen was conducted using Beas2B cells that stably express GFP-TFEB.

The test system of a further data set is BEAS-2B cells. Kind of data set: Toxicity: compound concentration needed to induce greater than 50 percent of cell loss. The format is cell-based, human. The following applies: 18 hours incubation. The procedure:
as §1
Toxicity was determined by determining the compound concentration needed to induce greater than 50 percent of cell loss. For toxicity, cell loss of greater than 50 percent at a concentration that equals or is greater than 25 μM was represented as cell loss of greater than 50 percent at a concentration less than 25 μM and greater than 1 μM was represented as and cell loss of greater than 50 percent at a concentration that equals or is less than 1 μM was represented as “+++.” The assay results for compounds 1-202, 214-248, 332, 333, and 352-402 are shown in Table A.

For `Cc1cc(F)cc(Nc2nc(-c3ccncc3)nc3ccccc23)c1` [Compound 1], the “efficacy (minimal compound concentration needed to increase TFEB nuclear/cytosol ratio by 25%)” value with TFEB is “+++ (“+++” equals ≤1 μM)”. The “toxicity (compound concentration needed to induce greater than 50 percent of cell loss)” value in the data set with BEAS-2B cells is recorded as “+ (cell loss of greater than 50 percent at a concentration that equals or is greater than 25 μM was represented as)”.
On the same counts, the results for `Cc1cc(C)cc(Nc2nc(-c3ccncc3)nc3ccccc23)c1` [Compound 2] are “+++ (“+++” equals ≤1 μM)” and “+ (cell loss of greater than 50 percent at a concentration that equals or is greater than 25 μM was represented as)”.
On the same counts, the results for `NC(=O)c1cccc(Nc2nc(-c3ccncc3)nc3ccccc23)c1` [Compound 3] are “+++ (“+++” equals ≤1 μM)” and “+ (cell loss of greater than 50 percent at a concentration that equals or is greater than 25 μM was represented as)”.
The like results for `CN(c1cccc(F)c1)c1nc(-c2ccncc2)nc2ccccc12` [Compound 4] were, in that order, “+++ (“+++” equals ≤1 μM)” and “+++ (cell loss of greater than 50 percent at a concentration that equals or is less than 1 μM was represented as “+++.”)”.
For `O=C(c1cccc(F)c1)c1nc(-c2ccncc2)nc2ccccc12` [Compound 5], the “efficacy (minimal compound concentration needed to increase TFEB nuclear/cytosol ratio by 25%)” value in the data set with TFEB is “+ (“+” equals >25 μM)”. Further, the “toxicity (compound concentration needed to induce greater than 50 percent of cell loss)” value with BEAS-2B cells is “+ (cell loss of greater than 50 percent at a concentration that equals or is greater than 25 μM was represented as)”.
For the compound `OC(c1cccc(F)c1)c1nc(-c2ccncc2)nc2ccccc12` (stereo not drawn) [Compound 6], the “efficacy (minimal compound concentration needed to increase TFEB nuclear/cytosol ratio by 25%)” value with TFEB is recorded as “+ (“+” equals >25 μM)”. For the same compound, the “toxicity (compound concentration needed to induce greater than 50 percent of cell loss)” value in the data set with BEAS-2B cells is “+ (cell loss of greater than 50 percent at a concentration that equals or is greater than 25 μM was represented as)”.
On the same counts, the results for `Fc1cccc(Cc2nc(-c3ccncc3)nc3ccccc23)c1` [Compound 7] are “+ (“+” equals >25 μM)” and “+ (cell loss of greater than 50 percent at a concentration that equals or is greater than 25 μM was represented as)”.
On the same counts, the results for `Fc1cccc(Nc2nc(-c3cncnc3)nc3ccccc23)c1` [Compound 8] are “+ (“+” equals >25 μM)” and “+ (cell loss of greater than 50 percent at a concentration that equals or is greater than 25 μM was represented as)”.
The like results for `O=[N+]([O-])c1ccc(-c2nc(Nc3cccc(F)c3)c3ccccc3n2)cc1` [Compound 9] were, in that order, “+ (“+” equals >25 μM)” and “+ (cell loss of greater than 50 percent at a concentration that equals or is greater than 25 μM was represented as)”.
For the compound `Cc1cc(Nc2nc(-c3ccncc3)nc3ccccc23)cc(C(F)(F)F)c1` [Compound 10], the “efficacy (minimal compound concentration needed to increase TFEB nuclear/cytosol ratio by 25%)” value with TFEB was “+ (“+” equals >25 μM)”. In addition, the “toxicity (compound concentration needed to induce greater than 50 percent of cell loss)” value in the data set with BEAS-2B cells was “+ (cell loss of greater than 50 percent at a concentration that equals or is greater than 25 μM was represented as)”.
The like results for `c1ccc2c(Nc3ccc4cn[nH]c4c3)nc(-c3ccncc3)nc2c1` [Compound 11] were, in that order, “+++ (“+++” equals ≤1 μM)” and “+ (cell loss of greater than 50 percent at a concentration that equals or is greater than 25 μM was represented as)”.
As to `c1ccc2c(Nc3ccc4c(c3)OCO4)nc(-c3ccncc3)nc2c1` [Compound 12], the “efficacy (minimal compound concentration needed to increase TFEB nuclear/cytosol ratio by 25%)” value in the data set with TFEB is given as “+++ (“+++” equals ≤1 μM)”. For the same compound, the “toxicity (compound concentration needed to induce greater than 50 percent of cell loss)” value in the data set on BEAS-2B cells was “+ (cell loss of greater than 50 percent at a concentration that equals or is greater than 25 μM was represented as)”.
On the same counts, the results for `c1ccc2c(Nc3ccc4cnccc4c3)nc(-c3ccncc3)nc2c1` [Compound 14] are “+ (“+” equals >25 μM)” and “+ (cell loss of greater than 50 percent at a concentration that equals or is greater than 25 μM was represented as)”.
On the same counts, the results for `FC1(F)Oc2ccc(Nc3nc(-c4ccncc4)nc4ccccc34)cc2O1` [Compound 17] are “+ (“+” equals >25 μM)” and “+ (cell loss of greater than 50 percent at a concentration that equals or is greater than 25 μM was represented as)”.
On the same counts, the results for `Fc1cc(Nc2nc(-c3ccncc3)nc3ccccc23)cc(C(F)(F)F)c1` [Compound 18] are “+ (“+” equals >25 μM)” and “+ (cell loss of greater than 50 percent at a concentration that equals or is greater than 25 μM was represented as)”.
In the case of `COc1cc(F)cc(Nc2nc(-c3ccncc3)nc3ccccc23)c1` [Compound 19], in the data set on TFEB, the “efficacy (minimal compound concentration needed to increase TFEB nuclear/cytosol ratio by 25%)” value was “+ (“+” equals >25 μM)”. The “toxicity (compound concentration needed to induce greater than 50 percent of cell loss)” value in the data set on BEAS-2B cells is “+ (cell loss of greater than 50 percent at a concentration that equals or is greater than 25 μM was represented as)”.
With `COc1cc(C)cc(Nc2nc(-c3ccncc3)nc3ccccc23)c1` [Compound 20], in the data set with TFEB, the “efficacy (minimal compound concentration needed to increase TFEB nuclear/cytosol ratio by 25%)” value was “++ (“++” equals between ≤25 μM and >1 μM)”. Further, the “toxicity (compound concentration needed to induce greater than 50 percent of cell loss)” value in the data set on BEAS-2B cells is recorded as “+ (cell loss of greater than 50 percent at a concentration that equals or is greater than 25 μM was represented as)”.
On to `CCc1cc(F)cc(Nc2nc(-c3ccncc3)nc3ccccc23)c1` [Compound 21], for which the “efficacy (minimal compound concentration needed to increase TFEB nuclear/cytosol ratio by 25%)” value in the data set with TFEB is on record as “+ (“+” equals >25 μM)”. Further, the “toxicity (compound concentration needed to induce greater than 50 percent of cell loss)” value in the data set with BEAS-2B cells is given as “+ (cell loss of greater than 50 percent at a concentration that equals or is greater than 25 μM was represented as)”.
The like results for `CCc1cc(C)cc(Nc2nc(-c3ccncc3)nc3ccccc23)c1` [Compound 22] were, in that order, “+ (“+” equals >25 μM)” and “+ (cell loss of greater than 50 percent at a concentration that equals or is greater than 25 μM was represented as)”.
The like results for `Cn1ncc2ccc(Nc3nc(-c4ccncc4)nc4ccccc34)cc21` [Compound 23] were, in that order, “+++ (“+++” equals ≤1 μM)” and “+ (cell loss of greater than 50 percent at a concentration that equals or is greater than 25 μM was represented as)”.
The like results for `c1ccc2c(Nc3ccc4cnsc4c3)nc(-c3ccncc3)nc2c1` [Compound 24] were, in that order, “+++ (“+++” equals ≤1 μM)” and “+ (cell loss of greater than 50 percent at a concentration that equals or is greater than 25 μM was represented as)”.

The record behind these values is US12286442B2, “Methods and materials for increasing transcription factor eb polypeptide levels” (University of Pittsburgh—Of the Commonwealth System of …, priority 2019, dated 2025).
